Results reported in patent US20220362282A1, “COMPOSITIONS AND METHODS FOR TREATING EYE DISEASES” (ADS THERAPEUTICS LLC, priority 2019, published 2022).
Blank lines part the entries; values can stand above or below the compound they belong to.

Experiments:
[1] = Screening of CDs and CD derivatives for ability to dissolve cholesterol in water (HPLC); assay type: physicochemical; details: for Concentrations of Cholesterol in CDs Solution: 5 days shaking at ambient; for Ability to dissolve cholesterol in water: CD 1, 10, 20% (w/v)
Protocol: Purpose: To determine the level of cholesterol that can be dissolved in water when 10 different CDs and their derivatives were added at three concentrations.
All CD solutions were prepared with starting 20% (w/v) solutions by accurately adding about 800 mg CDs in 4 milliliter water, 1% and 10% were diluted from this 20% solution to 2 mL for each sample preparation experiment.
Cholesterol was added accurately to all CD water solutions at about 40 mg/mL or about 80 mg per 2 mL. This amount of cholesterol was enough to fully saturate the CD solutions with white settlements or floating or both. All samples were conditioned at ambient by shaking using a rotator for 5 days.
After the equilibration with shaking for 5 days at ambient, the clear or semi-clear portion was filtered with 0.2 μm filter. 50 μL of the filtered solution was diluted with 450 μL methanol (10 X) for HPLC analysis. NOVAPAK phenyl column (7.6 cm by 3.9 mm I.D.) was used with a mobile phase of acetonitrile: water (70:30) at a flow rate of 0.5 ml/min and detection at UV at 210 nm.

[2] = cited from earlier work; for Ability to form soluble complex with cholesterol in aqueous solution: 37° C., CDs 1.0 × 10^−2 M; for Increase in Absorbance (600 nm) Due to Cholesterol Dissolved by CDs: Aqueous solution at 37° C., concentration of CDs 1.0 × 10^−2 M
[3] = tested on: Patients with Primary or Recurrent Pterygium; assay: Phase 2a clinical trial in pterygium patients: Pterygium Symptom and Life Quality (PSLQ) questionnaire scores; assay type: in vivo, human
Text: 2-HP-β-CD Formulation I was used as vehicle.
A trend of effects also remained after the stop of treatment at weeks 8, 16, and 24. The other questions didn't generate statistically significant effects.
These ocular symptoms are often observed in MGD patients. Scores of these symptoms were graded by patients as part of PSLQ questionnaires.

[4] = tested on: pterygium patients; assay: Safety (adverse events) of 10% HP-β-CD vehicle in the Phase 2 pterygium clinical trial; details: 10% as vehicle in the Phase 2 pterygium clinical trial
Protocol: The data was derived from the stage 2 of the Phase 2 clinical trial in pterygium patients who were topically administered 10% HP-β-CD as the vehicle of the testing article. The patients were treated for 4 weeks with three-time a day dosing and then followed up for another 20 weeks after the stop of treatment. The safety evaluation included the 20 weeks of non-treatment period.
All safety analyses were conducted on the safety population. MedDRA nomenclature was used to code adverse events. The number and percent of patients reporting adverse events were tabulated based on preferred terms and/or system organ class. Summary tables were generated for all adverse events regardless of causality as well as for treatment-related adverse events.

[5] = Baseline, Modified Intent-to-Treat Population, N = 23
[6] = Week 2, 10% (w/w) TID for 4 weeks, N = 23
[7] = Week 4, 10% (w/w) TID for 4 weeks, N = 23
[8] = Week 8 (after treatment period), N = 23
[9] = Week 16 (after treatment period), N = 23
[10] = Week 24 (after treatment period), N = 23

- Concentrations of Cholesterol in CDs Solution ([1]; CD 1% (w/v) in water): 190 µg/mL
- Ability to dissolve cholesterol in water [1]: the best
- Concentrations of Cholesterol in CDs Solution ([1]; CD 10% (w/v) in water): 5130 µg/mL
- Concentrations of Cholesterol in CDs Solution ([1]; CD 20% (w/v) in water): 10430 µg/mL
Compound: COC[C@H]1O[C@@H]2O[C@H]3[C@H](O)[C@@H](OC)[C@@H](O[C@H]4[C@H](O)[C@@H](OC)[C@@H](O[C@H]5[C@H](O)[C@@H](OC)[C@@H](O[C@H]6[C@H](O)[C@@H](OC)[C@@H](O[C@H]7[C@H](O)[C@@H](OC)[C@@H](O[C@H]8[C@H](O)[C@@H](OC)[C@@H](O[C@H]1[C@H](O)[C@H]2OC)O[C@@H]8COC)O[C@@H]7COC)O[C@@H]6COC)O[C@@H]5COC)O[C@@H]4COC)O[C@@H]3COC [DM-BCD, heptakis (2,6-di-O-methyl)-beta-cyclodextrin]
- Ability to form soluble complex with cholesterol in aqueous solution [2]: strong ability
- Increase in Absorbance (600 nm) Due to Cholesterol Dissolved by CDs [2]: 0.336

- Concentrations of Cholesterol in CDs Solution ([1]; CD 1% (w/v) in water): 150 µg/mL
- Ability to dissolve cholesterol in water [1]: the best
- Concentrations of Cholesterol in CDs Solution ([1]; CD 10% (w/v) in water): 6030 µg/mL
- Concentrations of Cholesterol in CDs Solution ([1]; CD 20% (w/v) in water): 14200 µg/mL
Compound: random methyl-beta-cyclodextrin [M-BCD]

Compound: 2-hydroxypropyl-alpha-cyclodextrin [HP-ACD, reference compound]
- Ability to dissolve cholesterol in water [1]: no detectable cholesterol dissolving activity

- Concentrations of Cholesterol in CDs Solution ([1]; CD 1% (w/v) in water): 30 µg/mL
- Ability to dissolve cholesterol in water [1]: about half lower
- Concentrations of Cholesterol in CDs Solution ([1]; CD 10% (w/v) in water): 2570 µg/mL
- Concentrations of Cholesterol in CDs Solution ([1]; CD 20% (w/v) in water): 3380 µg/mL
Compound: OC[C@H]1O[C@H](O[C@H]2[C@H](O)[C@@H](O)[C@@H](OC[C@H]3O[C@@H]4O[C@H]5[C@H](O)[C@@H](O)[C@@H](O[C@H]6[C@H](O)[C@@H](O)[C@@H](O[C@H]7[C@H](O)[C@@H](O)[C@@H](O[C@H]8[C@H](O)[C@@H](O)[C@@H](O[C@H]9[C@H](O)[C@@H](O)[C@@H](O[C@H]%10[C@H](O)[C@@H](O)[C@@H](O[C@H]3[C@H](O)[C@H]4O)O[C@@H]%10CO)O[C@@H]9CO)O[C@@H]8CO)O[C@@H]7CO)O[C@@H]6CO)O[C@@H]5CO)O[C@@H]2CO)[C@H](O)[C@@H](O)[C@@H]1O [6-AM-BCD, 6-O-alpha-maltosyl-beta-cyclodextrin, reference compound]

Compound: OC[C@H]1O[C@@H]2O[C@H]3[C@H](O)[C@@H](O)[C@@H](O[C@H]4[C@H](O)[C@@H](O)[C@@H](O[C@H]5[C@H](O)[C@@H](O)[C@@H](O[C@H]6[C@H](O)[C@@H](O)[C@@H](O[C@H]7[C@H](O)[C@@H](O)[C@@H](O[C@H]8[C@H](O)[C@@H](O)[C@@H](O[C@H]9[C@H](O)[C@@H](O)[C@@H](O[C@H]1[C@H](O)[C@H]2O)O[C@@H]9CO)O[C@@H]8CO)O[C@@H]7CO)O[C@@H]6CO)O[C@@H]5CO)O[C@@H]4CO)O[C@@H]3CO [GCD, gamma-cyclodextrin]
- Ability to form soluble complex with cholesterol in aqueous solution [2]: do not form soluble complexes
- Increase in Absorbance (600 nm) Due to Cholesterol Dissolved by CDs [2]: 0

Compound: COC(=O)c1ccc2c(c1)NC(=O)/C2=C(\Nc1ccc(N(C)C(=O)CN2CCN(C)CC2)cc1)c1ccccc1 [Nintedanib, reference compound]
- PSLQ ocular symptom score, Nintedanib 0.2% vs Vehicle ([3]; pterygium patients with dry eye condition): no statistically significant differences

- Concentrations of Cholesterol in CDs Solution ([1]; CD 1% (w/v) in water): 10 µg/mL
- Ability to dissolve cholesterol in water [1]: substantial ability
- Concentrations of Cholesterol in CDs Solution ([1]; CD 10% (w/v) in water): 820 µg/mL
- Concentrations of Cholesterol in CDs Solution ([1]; CD 20% (w/v) in water): 2980 µg/mL
Compound: 2-Hydroxypropyl-beta-cyclodextrin [2-HP-β-CD]
- PSLQ scores compared to the baseline ([3]; 2-HP-β-CD-treated group, N = 23): significant improvements
- Magnitude of reduction in PSLQ ocular symptom score, dry eye vs no dry eye patients ([3]; 10%, pterygium patients with vs without dry eye condition): statistically significant bigger
- PSLQ Average Ocular Symptom Score, Mean (SD) [3, 5]: 0.88 (0.81)
- PSLQ Average Quality of Life Impact Score, Mean (SD) [3, 5]: 0.57 (0.92)
- PSLQ Average Vision-Related Functioning Score, Mean [3, 5]: 0.57
- PSLQ Overall Average Score, Mean (SD) [3, 5]: 0.70 (0.66)
- PSLQ Average Ocular Symptom Score, Change from Baseline, Mean (SD) [3, 6]: −0.36 (0.69)
- PSLQ Average Quality of Life Impact Score, Change from Baseline, Mean (SD) [3, 6]: −0.19 (0.39)
- PSLQ Average Vision-Related Functioning Score, Change from Baseline, Mean [3, 6]: −0.27
- PSLQ Overall Average Score, Change from Baseline, Mean (SD) [3, 6]: −0.28 (0.45)
- PSLQ Average Ocular Symptom Score, Change from Baseline, Mean (SD) [3, 7]: −0.46 (0.71)
- PSLQ Average Quality of Life Impact Score, Change from Baseline, Mean (SD) [3, 7]: −0.19 (0.50)
- PSLQ Average Vision-Related Functioning Score, Change from Baseline, Mean [3, 7]: −0.48
- PSLQ Overall Average Score, Change from Baseline, Mean (SD) [3, 7]: −0.35 (0.51)
- PSLQ Average Ocular Symptom Score, Change from Baseline, Mean (SD) [3, 8]: −0.39 (0.84)
- PSLQ Average Quality of Life Impact Score, Change from Baseline, Mean (SD) [3, 8]: −0.17 (0.52)
- PSLQ Average Vision-Related Functioning Score, Change from Baseline, Mean [3, 8]: −0.43
- PSLQ Overall Average Score, Change from Baseline, Mean (SD) [3, 8]: −0.30 (0.55)
- PSLQ Average Ocular Symptom Score, Change from Baseline, Mean (SD) [3, 9]: −0.29 (0.79)
- PSLQ Average Quality of Life Impact Score, Change from Baseline, Mean (SD) [3, 9]: −0.13 (0.68)
- PSLQ Average Vision-Related Functioning Score, Change from Baseline, Mean [3, 9]: −0.23
- PSLQ Overall Average Score, Change from Baseline, Mean (SD) [3, 9]: −0.20 (0.64)
- PSLQ Average Ocular Symptom Score, Change from Baseline, Mean (SD) [3, 10]: −0.33 (0.90)
- PSLQ Average Quality of Life Impact Score, Change from Baseline, Mean (SD) [3, 10]: −0.15 (0.59)
- PSLQ Average Vision-Related Functioning Score, Change from Baseline, Mean [3, 10]: −0.11
- PSLQ Overall Average Score, Change from Baseline, Mean (SD) [3, 10]: −0.22 (0.73)
- Ability to form soluble complex with cholesterol in aqueous solution [2]: only a weak ability
- Increase in Absorbance (600 nm) Due to Cholesterol Dissolved by CDs [2]: 0.01
- Safety profile [4]: excellent safety profile

- Ability to dissolve cholesterol in water [1]: extremely low levels
- Concentrations of Cholesterol in CDs Solution ([1]; CD 10% (w/v) in water): 3 µg/mL
- Concentrations of Cholesterol in CDs Solution ([1]; CD 20% (w/v) in water): 11 µg/mL
Compound: 2-hydroxypropyl-gamma-cyclodextrin [HP-GCD, reference compound]

Compound: OC[C@H]1O[C@@H]2O[C@H]3[C@H](O)[C@@H](O)[C@@H](O[C@H]4[C@H](O)[C@@H](O)[C@@H](O[C@H]5[C@H](O)[C@@H](O)[C@@H](O[C@H]6[C@H](O)[C@@H](O)[C@@H](O[C@H]7[C@H](O)[C@@H](O)[C@@H](O[C@H]8[C@H](O)[C@@H](O)[C@@H](O[C@H]1[C@H](O)[C@H]2O)O[C@@H]8CO)O[C@@H]7CO)O[C@@H]6CO)O[C@@H]5CO)O[C@@H]4CO)O[C@@H]3CO [BCD, beta-cyclodextrin]
- Ability to form soluble complex with cholesterol in aqueous solution [2]: do not form soluble complexes

Compound: OC[C@H]1O[C@@H]2O[C@H]3[C@H](O)[C@@H](O)[C@@H](O[C@H]4[C@H](O)[C@@H](O)[C@@H](O[C@H]5[C@H](O)[C@@H](O)[C@@H](O[C@H]6[C@H](O)[C@@H](O)[C@@H](O[C@H]7[C@H](O)[C@@H](O)[C@@H](O[C@H]1[C@H](O)[C@H]2O)O[C@@H]7CO)O[C@@H]6CO)O[C@@H]5CO)O[C@@H]4CO)O[C@@H]3CO [ACD, alpha-cyclodextrin]
- Ability to form soluble complex with cholesterol in aqueous solution [2]: do not form soluble complexes
- Increase in Absorbance (600 nm) Due to Cholesterol Dissolved by CDs [2]: 0

- Concentrations of Cholesterol in CDs Solution ([1]; CD 1% (w/v) in water): 2 µg/mL
- Concentrations of Cholesterol in CDs Solution ([1]; CD 10% (w/v) in water): 30 µg/mL
- Concentrations of Cholesterol in CDs Solution ([1]; CD 20% (w/v) in water): 150 µg/mL
Compound: sulfobutylated beta-cyclodextrin [SBE-BCD]
